Reference: PubChem BioAssay (NCI)
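Values below derive from 48-hour exposures of cells grown in 96-well plates, with endpoints linearly interpolated between the two concentrations bracketing the appropriate inhibition level. Here, GI50 denotes the concentration required for 50% inhibition of growth. TGI: total growth inhibition.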

How the values were obtained:
Test in all cases: inhibition of tumour cell growth, NCI panel, 48 h
[1] = test system: SK-OV-3 ovarian
[2] = test system: CAKI-1 renal
[3] = test system: SN12C renal
[4] = test system: U251 CNS
[5] = test system: NCI-H460 lung
[6] = test system: HCC-2998 colon
[7] = test system: MDA-MB-231 breast
[8] = test system: SNB-19 CNS
[9] = test system: DU-145 prostate
[10] = test system: SNB-75 CNS

COc1ccc2c(c1OC)-c1c(c3ccc([N+](=O)[O-])cc3c(=O)n1CCCN=[N+]=[N-])C2=O
GI50 [1]: 19.4 µM | TGI [1]: > 100 µM | GI50 [2]: 2.55 µM | TGI [2]: 9.73 µM | GI50 [3]: 11.5 µM | TGI [3]: > 100 µM | GI50 [4]: 6.2 µM | TGI [4]: > 100 µM | GI50 [5]: 9.97 µM | TGI [5]: > 100 µM | GI50 [6]: 79.9 µM | TGI [6]: > 100 µM | GI50 [7]: > 100 µM | TGI [7]: > 100 µM | GI50 [8]: 3.62 µM | TGI [8]: > 100 µM | GI50 [9]: 4.88 µM | TGI [9]: > 100 µM

c1ccc2cc(OCC3CO3)c(OCC3CO3)cc2c1 (stereo unspecified)
TGI [1]: 22.3 µM | TGI [2]: 37.6 µM | TGI [3]: 15 µM | TGI [4]: 13.9 µM | TGI [5]: 15.8 µM | TGI [7]: 55.1 µM | TGI [8]: 17.7 µM | TGI [10]: 18.6 µM | TGI [9]: 16.7 µM

COc1ccc(OC)c(-c2cc(-c3ccccc3)nn2-c2ccc(S(N)(=O)=O)cc2)c1
GI50 [2]: 14.8 µM | TGI [2]: 32.8 µM | GI50 [3]: 12.5 µM | TGI [3]: 25 µM | GI50 [5]: 11 µM | TGI [5]: 77.3 µM | GI50 [6]: 23 µM | TGI [6]: 37.9 µM | GI50 [7]: 11.1 µM | TGI [7]: 27 µM | GI50 [9]: 15.6 µM | TGI [9]: 29.5 µM

O=C(CCc1ccccc1)On1nnc2ccccc2c1=O
TGI [1]: > 100 µM | TGI [2]: > 100 µM | TGI [3]: > 100 µM | TGI [4]: > 100 µM | TGI [5]: > 100 µM | TGI [6]: > 100 µM | TGI [8]: > 100 µM | TGI [10]: > 100 µM

CCOC(=O)c1cc2cc(NC(=O)c3cc4cc([N+](=O)[O-])ccc4n3C)ccc2n1C
GI50 [2]: 30.9 µM | TGI [2]: > 100 µM | GI50 [3]: 16.3 µM | TGI [3]: 46.5 µM | GI50 [4]: 14.1 µM | TGI [4]: 30.9 µM | GI50 [5]: 30.6 µM | TGI [5]: > 100 µM | GI50 [7]: 2.69 µM | TGI [7]: 16.3 µM | GI50 [8]: 22.7 µM | TGI [8]: > 100 µM

Cc1ccc(C2SCc3nc4ccc(C(=O)c5ccccc5)cc4n32)cc1 (stereo unspecified)
GI50 [1]: 20.5 µM | TGI [1]: 47.8 µM | GI50 [2]: 0.457 µM | TGI [2]: 4.26 µM | GI50 [3]: 11.4 µM | TGI [3]: 38.3 µM | GI50 [4]: 5.09 µM | TGI [4]: > 83.7 µM | GI50 [5]: 10.7 µM | TGI [5]: > 75.6 µM | GI50 [7]: 3.66 µM | TGI [7]: 19.4 µM | GI50 [8]: 12.4 µM | TGI [8]: > 71.9 µM | GI50 [10]: 23.3 µM | TGI [10]: > 70 µM | GI50 [9]: 27.9 µM | TGI [9]: 89.6 µM

CC1CCCN(CC(O)CN2CCCc3ccccc32)C1 (stereo unspecified)
TGI [1]: > 100 µM | TGI [2]: > 100 µM | TGI [3]: > 100 µM | TGI [4]: > 100 µM | TGI [7]: > 100 µM | TGI [8]: > 100 µM | TGI [10]: > 100 µM | TGI [9]: > 100 µM

Cc1c2ncccc2nc2[nH]c3ccc(OCCN(C)C)cc3c12
GI50 [1]: 2.3 µM | TGI [1]: 17.5 µM | GI50 [2]: 3.61 µM | TGI [2]: 21.3 µM | GI50 [3]: 2.5 µM | TGI [3]: 28.5 µM | GI50 [4]: 2.68 µM | TGI [4]: 17.3 µM | GI50 [5]: 1.93 µM | TGI [5]: 11 µM | GI50 [6]: 1.64 µM | TGI [6]: 14.6 µM | GI50 [7]: 2.5 µM | TGI [7]: 16 µM | GI50 [8]: 2.8 µM | TGI [8]: 26.7 µM | GI50 [9]: 1.9 µM | TGI [9]: 11.6 µM

Cc1[nH]c(=O)nc(CC(O)(c2ccccc2)c2ccccc2)c1-c1ccccc1
TGI [1]: > 100 µM | TGI [2]: > 100 µM | TGI [3]: > 100 µM | TGI [4]: > 100 µM | TGI [5]: > 100 µM | TGI [6]: > 100 µM | TGI [8]: > 100 µM | TGI [10]: > 100 µM

NS(=O)(=O)c1ccc(NC(=O)CC(=O)Nc2ccc(S(N)(=O)=O)cc2)cc1
TGI [1]: > 100 µM | TGI [2]: > 100 µM | TGI [3]: > 100 µM | TGI [4]: > 100 µM | TGI [6]: > 100 µM | TGI [8]: > 100 µM | TGI [10]: > 100 µM

O=C(CCCNC(=O)OCc1ccccc1)OCc1ccc2c(c1)C(=O)c1ccccc1C2=O
TGI [1]: 79 µM | TGI [2]: > 89.6 µM | TGI [3]: > 26 µM | TGI [4]: > 100 µM | TGI [5]: > 100 µM | TGI [6]: > 100 µM | TGI [8]: > 100 µM | TGI [10]: 40.3 µM

CCc1ccc(/C(C)=N/NC(N)=S)cc1
TGI [1]: > 100 µM | TGI [2]: > 100 µM | TGI [4]: > 100 µM | TGI [6]: > 100 µM | TGI [8]: > 100 µM

C#CCOc1ccc2ncnc(Nc3ccc(NC(=O)CCl)cc3)c2c1
GI50 [1]: 12.5 µM | TGI [1]: 38.6 µM | GI50 [2]: 11.3 µM | TGI [2]: 23.6 µM | GI50 [3]: 6.4 µM | TGI [3]: 36.9 µM | GI50 [4]: 2.08 µM | TGI [4]: 5.99 µM | GI50 [5]: 10.6 µM | TGI [5]: 30.1 µM | GI50 [6]: 13.7 µM | TGI [6]: 27.1 µM | GI50 [7]: 4.51 µM | TGI [7]: 20 µM | GI50 [8]: 8.43 µM | TGI [8]: 22.3 µM | GI50 [9]: 11.7 µM | TGI [9]: 24 µM

COc1cc2nc(-c3ccc(-n4cncc4-c4ccc(N)cc4)cc3)sc2c(OC)c1OC
GI50 [1]: 11.7 µM | TGI [1]: 31.3 µM | GI50 [2]: 1.41 µM | TGI [2]: 5.85 µM | GI50 [3]: 8.95 µM | TGI [3]: > 100 µM | GI50 [4]: 3.84 µM | TGI [4]: 17 µM | GI50 [5]: 5.13 µM | TGI [5]: > 100 µM | GI50 [7]: 3.66 µM | TGI [7]: > 100 µM | GI50 [8]: 12.3 µM | TGI [8]: 51.1 µM | GI50 [10]: 5.94 µM | TGI [10]: 23.5 µM | GI50 [9]: 7.25 µM | TGI [9]: > 100 µM

O=C(N=Nc1c(O)[nH]c2c(Cl)cc(Cl)cc12)c1ccncc1
TGI [1]: 69.8 µM | TGI [2]: 39 µM | TGI [3]: 64.4 µM | TGI [4]: 41.6 µM | TGI [5]: > 100 µM | TGI [6]: > 100 µM | TGI [7]: 39.4 µM | TGI [8]: > 100 µM | TGI [10]: 95.2 µM

COc1ccc(/C=C/c2nc(=S)[nH][nH]2)cc1
TGI [2]: > 100 µM | TGI [3]: > 100 µM | TGI [4]: > 100 µM | TGI [5]: > 100 µM | TGI [6]: > 100 µM | TGI [8]: > 100 µM | TGI [10]: > 100 µM

N#CCC(=O)N/N=C1/C(=O)NC(=O)C(=O)C1c1nc2ccccc2s1 (stereo unspecified)
TGI [1]: > 100 µM | TGI [2]: > 100 µM | TGI [3]: > 100 µM | TGI [4]: > 100 µM | TGI [6]: > 100 µM | TGI [8]: > 100 µM | TGI [10]: > 100 µM

CCOC(=O)c1c(C)n(CC(C)C)c2c1cc1oc(=O)c(=O)n3cnc2c13
GI50 [1]: 20.4 µM | TGI [1]: > 50 µM | GI50 [2]: 11.4 µM | TGI [2]: 29.2 µM | GI50 [3]: 10.7 µM | TGI [3]: 22.9 µM | GI50 [4]: 10 µM | TGI [4]: 24.1 µM | GI50 [5]: 16.7 µM | TGI [5]: > 50 µM | GI50 [7]: 8.18 µM | TGI [7]: 22.1 µM | GI50 [8]: 36.2 µM | TGI [8]: > 50 µM | GI50 [10]: 12.5 µM | TGI [10]: > 50 µM | GI50 [9]: 16.3 µM | TGI [9]: > 50 µM

CN(C)c1nc(N(C)C)n2nc(-c3ccccc3[N+](=O)[O-])nc2n1
TGI [1]: > 100 µM | TGI [2]: > 100 µM | TGI [3]: > 100 µM | TGI [4]: > 100 µM | TGI [5]: > 100 µM | TGI [6]: > 100 µM | TGI [8]: > 100 µM | TGI [10]: > 100 µM
